Results published in patent US5258406A, “Sulfonimidamides” (priority 1992, dated 1993).
Where two headings read alike, the source gives them in different places.

Test system: 6C3HED lymphosarcoma
Test: animal or person
Type: in vivo
Method: The compounds were tested in C3H mice bearing a 6C3HED lymphosarcoma, also known as the Gardner lymphosarcoma (GLS), and in a variety of human tumor xenografts in CD1 nu/nu mice, including CX-1, LX-1, HXGC3, and VRC5. The 6C3HED lymphosarcoma was obtained from the Division of Cancer Treatment, National […] Institute, Tumor Bank, maintained at E. G. and G. Mason Research (Worcester, Mass.). The CX-1 human colon carcinoma and the LX-1 human lung carcinoma xenografts were obtained from the National Cancer Institute. The HXGC3 and VRC5 human colon xenografts were obtained from Dr. P. J. Houghton, St. Jude Children's Hospital in Memphis (see Br. J. Cancer, 37, 213 (1978)). First passage tumor was stored in liquid nitrogen using standard techniques. The transplanted tumor was reestablished from the Tumor Bank every six months or as needed. The tumor was maintained by serial passage twice weekly in C3H mice.
In the procedure the tumor was removed from passage animals and minced into 1- to 3-mm square fragments using sterile techniques. Tumor pieces were checked for sterility using both Antibiotic Medium 1 and Brain Heart Infusion (Difco, Detroit, Mich.). Recipient mice were shaved and tumor pieces were implanted subcutaneously in the auxiliary region by trocar. Drug therapy on the appropriate schedule was initiated on the day after tumor implant for 6C3HED and after a seven (7) day delay for xenografts (or other delay as noted in Table 2). The compound being tested was mixed with 2.5% Emulphor EL620 from GAF Corporation (1:40 dilution in saline). Food and water were provided ad libitium. The drug was administered orally in 0.5 ml of 2.5% Emulphor (unless otherwise indicated). The tumor was measured the day after treatment ended with two dimensional measurements (width and length) of the tumor taken using automated digital calipers interfaced to a microcomputer. Approximate weight for the tumor was calculated using the following formula [Worzalla, J. F., et al., Invest. New Drugs, 8, 241 (1990], (tumor weight in mg)=(width in mm)^2 ×(length in mm)/2.
At least one control group of an equal number of mice was treated with the same volume of 2.5% Emulphor only. The percent inhibition was determined by subtracting the ratio of the mean tumor size of the test group relative to the control group from one and multiplying the result times 100.
The results of several experiments in mice bearing a 6C3HED lymphosarcoma (or other tumor where indicated) when the indicated compounds were administered are provided in Table 2. In Table 2, column 1 gives the Example number of the compound used, column 2 lists the dose level in mg/kg, column 3 provides the percent inhibition of tumor growth, column 4 gives the number of mice which died relative to the total number of animals in the group, column 5 gives the method of administration of the compound, and column 6 gives the dosage schedule. The protocol used with other tumors was the same as with the 6C3HED lymphosarcoma.

[1] = Mus musculus, 6C3HED, ip, read-out: % inhibition of tumor growth, IP, 150 mg/kg, DX 8
[2] = Mus musculus, 6C3HED, po, read-out: % inhibition of tumor growth, oral, 150 mg/kg, BIDX 8
[3] = Mus musculus, 6C3HED, po, read-out: % inhibition of tumor growth, oral, 300 mg/kg, BIDX 8
[4] = Mus musculus, 6C3HED, po, read-out: % inhibition of tumor growth, oral, 25 mg/kg, DX 8
[5] = Mus musculus, 6C3HED, po, read-out: % inhibition of tumor growth, oral, 50 mg/kg, DX 8

| SMILES | Tox/Tot (mice which died / total) (IP, 150 mg/kg, DX 8) | Tox/Tot (mice which died / total) (IP, 300 mg/kg, DX 8) | inhibition in vivo at 150 mg/kg [1] | inhibition in vivo at 150 mg/kg [2] | inhibition in vivo at 300 mg/kg [3] | Tox/Tot (mice which died / total) (oral, 150 mg/kg, BIDX 8) | Tox/Tot (mice which died / total) (oral, 300 mg/kg, BIDX 8) | inhibition in vivo at 25 mg/kg [4] | inhibition in vivo at 50 mg/kg [5] | Tox/Tot (mice which died / total) (oral, 25 mg/kg, DX 8) | Tox/Tot (mice which died / total) (oral, 50 mg/kg, DX 8) | also measured |
| --- | --- | --- | --- | --- | --- | --- | --- | --- | --- | --- | --- | --- |
| N=S(=O)(NC(=O)Nc1ccc(Cl)cc1)c1ccc2c(c1)CCC2 (stereo not drawn) [Example 54, N-[[(4-chlorophenyl)amino]carbonyl]-5-indanylsulfonimidamide] | 1/10 | 3/10 | 86% | 22% | 33% | 0/10 | 0/10 |  |  |  |  | Tox/Tot (mice which died / total) (IP, 12.5 mg/kg, BIDX 8): 0/10; Tox/Tot (mice which died / total) (IP, 25 mg/kg, BIDX 8): 0/10; Tox/Tot (mice which died / total) (IP, 50 mg/kg, BIDX 8): 0/10; Tox/Tot (mice which died / total) (IP, 100 mg/kg, BIDX 8): 0/10; Tox/Tot (mice which died / total) (IV, 12.5 mg/kg, DX 8): 0/10; Tox/Tot (mice which died / total) (IV, 25 mg/kg, DX 8): 0/10; inhibition in vivo at 12.5 mg/kg (Mus musculus, 6C3HED, ip, read-out: % inhibition of tumor growth, IP, 12.5 mg/kg, BIDX 8): 6%; inhibition in vivo at 25 mg/kg (Mus musculus, 6C3HED, ip, read-out: % inhibition of tumor growth, IP, 25 mg/kg, BIDX 8): 30%; inhibition in vivo at 50 mg/kg (Mus musculus, 6C3HED, ip, read-out: % inhibition of tumor growth, IP, 50 mg/kg, BIDX 8): 44%; inhibition in vivo at 100 mg/kg (Mus musculus, 6C3HED, ip, read-out: % inhibition of tumor growth, IP, 100 mg/kg, BIDX 8): 70%; inhibition in vivo at 300 mg/kg (Mus musculus, 6C3HED, ip, read-out: % inhibition of tumor growth, IP, 300 mg/kg, DX 8): 94%; inhibition in vivo at 12.5 mg/kg (Mus musculus, 6C3HED, iv, read-out: % inhibition of tumor growth, IV, 12.5 mg/kg, DX 8): 3%; inhibition in vivo at 25 mg/kg (Mus musculus, 6C3HED, iv, read-out: % inhibition of tumor growth, IV, 25 mg/kg, DX 8): 19%; inhibition in vivo at 600 mg/kg (Mus musculus, 6C3HED, po, read-out: % inhibition of tumor growth, oral, 600 mg/kg, DX 8): 34%; Tox/Tot (mice which died / total) (oral, 150 mg/kg, DX 8): 0/10; Tox/Tot (mice which died / total) (oral, 300 mg/kg, DX 8): 0/10; Tox/Tot (mice which died / total) (oral, 600 mg/kg, DX 8): 0/10 |
| CN=S(=O)(NC(=O)Nc1ccc(Cl)cc1)c1ccc2c(c1)CCC2 (stereo not drawn) [Example 55, N-[[(4-chlorophenyl)amino]carbonyl]-N'-methyl-5-indanylsulfonimidamide] |  |  |  | 75% |  | 1/10 |  |  |  |  |  | inhibition in vivo at 75 mg/kg (Mus musculus, 6C3HED, po, read-out: % inhibition of tumor growth, oral, 75 mg/kg, BIDX 8): 70%; Tox/Tot (mice which died / total) (oral, 75 mg/kg, BIDX 8): 0/10 |
| Cc1cc(S(N)(=O)=NC(=O)Nc2ccc(Cl)cc2)cc(C)c1Cl (stereo not drawn) [Example 61] | 2/10 | 10/10 | 72% | 0% | 0% | 0/10 | 0/10 |  |  |  |  | % inhibition of tumor growth (IP, 300 mg/kg, DX 8): TOX |
| CNS(=O)(=NC(=O)Nc1ccc(Cl)cc1)c1ccc(C)c(C)c1 (stereo not drawn) [Example 62] |  |  |  |  |  |  |  | 98% | 99% | 0/10 | 2/10 |  |
| CC(=O)N(C)S(=O)(=NC(=O)Nc1ccc(Cl)cc1)c1ccc(C)c(C)c1 (stereo not drawn) [Example 63] |  |  |  |  |  |  |  | 79% | 95% | 0/10 | 0/10 |  |
| CNS(=O)(=NC(=O)N(C)c1ccc(Cl)cc1)c1ccc(C)cc1 (stereo not drawn) [Example 65] |  |  |  | 91% | 97% | 0/10 | 0/10 |  |  |  |  |  |
